The nature of series [1]: TEM imaging / preparation of peptide assemblies (nanofilament size and stability). It counts as physicochemical. The settings on record: in water. How it is done:
To prepare the stocks of peptide assembled nanofilaments, the required amount of peptide was dissolved in Milli-Q water at 100 mM (for FFF) or 10 mM (for the other peptides, and peptides mixture) and adjust the solution to reach a final pH of 7.0 using 1 N NaOH solution. To stabilize the peptide assemblies, the stock solutions were stored at room temperature for at least 24 h before application. The obtained nanofilaments were very stable and were not affected by simple dilution at neutral pH. Therefore, to prepare the working solution, the desired amount of stock solution was diluted using Milli-Q water or the culture medium. Stand the working solutions for 30 min to evenly distribute nanofilaments in the working solution before applying them to the experiments.
To prepare TEM samples, 5 μL peptide solution was dropped on a glow-charged copper grid (400 mesh) coated with carbon film. After removing excess solution, the grid was gently washed three times to remove excess nanofilaments. Then the sample grid was negatively stained using 1.0% (w/v) uranyl acetate and air-dried. TEM images were captured at a high vacuum using a transmission electron microscope (JEM-1230R, JEOL, Japan).

For series [2], the system named is Rac1 in HuH-7 cells (RaichuEV-Rac1). The series is described as follows: Rac1 activity by FRET. It counts as cell-based, human. The text has this:
The mGFP-paxillin expression vector was a gift from A. Kusumi (Okinawa Institute of Science and Technology, Japan). pGFP-FAK and pEGFP-vinculin were gifts from Kenneth Yamada (RRID: Addgene_50513 and Addgene¬_50515)[39], EGFP-talin, mVenus-Integrin-Beta1 and mRuby-Lifeact-7 was a gift from Michael Davidson (RRID: Addgene_54560). pEGFPC1/Gg Vinculin 1-258 (akaVD1) was a gift from S. Craig (RRID: Addgene_46270)[40]. The Rac1 FRET Sensor, pCAGGS-RaichuEV-Rac1was generously provided by K. Aoki (National Institute for Basic Biology, Japan)[41] and the RhoA FRET sensor, DORA-RhoA was generously provided by Yi I. Wu (University of Connecticut Health Center, USA)[42]. The expression vectors for Rac1/Tiam1 activation system (Lyn11-linker-FRB, YFP-FKBP, YFP-FKBP-linker-Tiam1, and pTriEx-PA-Rac1) was generously provided by T. Inoue (Johns Hopkins University, USA)[43].

The subject of series [3] is integrin knockdown HuH-7 cells. The series is described as follows: Wound healing assay, integrin knockdown HuH-7. It counts as cell-based, human. The note with it: 48 hr wound healing, 100 µM, n = 6. How it is done:
Healthy cells were seeded in 96-well Image Lock plates (Essen Bioscience, UK). Each well contained 2 ×10^4 to 5 × 10^4 cells in 100 μL of complete cell culture medium. Cell monolayer with approximately 90% confluence formed after 12 hr and cells were next starved in serum-free culture medium for 12 hrs. Homogenous scratch wounds with a width of about 700 μm were made by an Essen BioScienceWound Maker. The detached cells were washed with Dulbecco’s Buffered Saline (DPBS, Gibco) 3 times. Cells were incubated with 100 μL of culture medium containing 0.5 % FBS and desired concentration of each peptide. Wound closure was monitored by an IncucyteS3 (Essen Bioscience) with a 10x objective. Images for each well were acquired every 2 hr to 8 hr for 2 days or until the wounds were closed completely. The wound healing rate was quantified by Incucyte Scratch Wound Analysis Module (Essen Bioscience). The experiments were repeated at least 3 times, and the results were presented as mean ± standard deviation of at least 3 independent experiments.
Integrin β1 shRNA plasmid (#sc-29375-SH), Integrin α3 shRNA plasmid (#sc-35684-SH), Integrin α6 shRNA plasmid (#sc-43129-SH), and control shRNA plasmid-A (#sc-108060) were purchased from Santa Cruz Biotechnology for knockdown of the target integrins. The knockdown efficiency was evaluated by western blotting.

Series [4] relates to HuH-7 cells. As to the kind of experiment: Cell adhesion assay, HuH-7. It counts as cell-based, human. The settings on record: FFFIKLLI pre-coated dishes. How it is done: The 96-well microplates wells were coated with peptide assemblies (the concentration of FFFIKLLI was kept at 100 μM constantly) for 12 hr at 37 °C before blocked with the Blocking Buffer (2% BSA, 1 mM CaCI2 and 1 mM MnCI2 in PBS) for 1 hr at 37 °C. Cells were collected from culture dishes and suspended in the Blocking Buffer containing anti-laminin-5 (P3H9-2, MAB1947, Chemicon, 5 μg/ml), anti-fibronectin (IST-9, ab6328, Abcam, 20 μg/ml) or IgG isotype control (20 μg/ml, Abcam) before immediately seeded to the coated well (20,000 cells/well) and allowed to incubate at 37 °C for 1 h. The wells were washed for three times with the Blocking Buffer and the phase-contrast images were captured by IncucyteS3 (Essen Bioscience) with a 10× objective.

The subject of series [5] is HuH-7 cells. As to the kind of experiment: MTT assay, HuH-7 cell viability. It counts as cell-based, human. The note with it: HuH-7, 10-200 µM, 24, 48, 72 hr. How it is done:
Huh-7 cells were seeded in 96-well plates at a density of 5 × 10^3 cells/ well. The cells were allowed to adhere by incubating at 37 °C with 5% CO2 for 12 hr. 100 μL of Cultured medium containing 10% FBS and the desired concentration of peptide replaced to each well and the cells were then incubated with the peptide solution for another 24, 48, or 72 hr. After the desired time of incubation, 10 μL of MTT (12 mM, Invitrogen) solution at a concentration of 5 mg/mL was added to each well and incubated at 37 °C for another 4 hr. The reduction reaction was terminated by adding 100 μL of 10% of SDS solution (in Milli-Q) and incubated for 12 hr to dissolve the formazan crystals formed in the cells. A Nivo multimode plate reader (PerkinElmer) was used to measure the optical density at the 570 nm wavelength of each well. All experiments were conducted in triplicate, and the results were calculated as mean ± standard deviation and presented as cell viability.

Series [6] concerns integrin α3β1. As to the kind of experiment: MicroScale Thermophoresis integrin binding. The arrangement: species or system human. The note with it: MST, n = 3. An excerpt:
The interaction between integrins and peptide ligands in PBS was quantified by a Monolith® NT.115Pico (NanoTemper Technology, Germany) using MO. Control 1.6 software. Recombinant human integrin proteins, including alpha-3/ beta-1, alpha-5/beta-1, and alpha-6/ beta-1, were purchased from R&D Systems (USA). Recombinant integrin proteins were labeled by Monolith^TM Protein Labeling Kit RED-NHS (NanoTemper Technology) following the instruction provided by the manufacturer. The fluorescence-labeled integrin solution was mixed with peptides solution in 15 concentration gradients at a 1:1 ratio. The Monolith^TM NT.115 MST Premium Coated Capillaries (NanoTemper Technology) were applied to draw the mixed solution with the order of declining ligand concentration. Pretests were performed to ensure the protein concentration and fluorescent intensities in each tube were equal. Following that, quantitative binding affinity was measured three times.

“Also recorded” adds a separate entry of the source.

In the case of “FFFIKLLI [assembling ligand: FFF coupled to the N-terminus of IKLLI; self-assembles into nanofilaments]”, the nanofilament width in series [1] (TEM, FFFIKLLI 100 μM) is listed as ~ 100 nm. In series [1] (neutral pH, simple dilution), the nanofilament stability result was “stable”. For the same sequence, the “Rac1 activity, FRET/CFP” value in series [2] (12 hr, n = 50 cells, mean) amounted to 1.262. Further, the “Rac1 activity” value in series [2] (HuH-7) was “great inhibition; also recorded: global inhibition”. Besides, in series [3], the “suppression efficacy after knockdown of α3 or β1 integrin subunit” value is recorded as “attenuated the suppression efficacy”. Also, in series [3], the “suppression efficacy after knockdown of α6 subunit (attenuated?)” value is given as “did not”. The attached cells in series [4] (IgG, n = 30) is on record as 171.2 Counts / mm2; in series [4] (anti-fibronectin IST-9, n = 30), 162.2 Counts / mm2; in series [4] (anti-laminin-5 P3H9-2, n = 30), 157.4 Counts / mm2. Also, the cytotoxicity entry in series [5] is recorded as “without inducing cytotoxicity”. The integrin-binding affinity result in series [6] (PBS, integrin 2 nM, in words) is reported as “highest binding affinity”. For the same sequence, the integrin selectivity result in series [6] (integrin α3β1 vs α5β1 and α6β1, integrin 2 nM) is reported as “selectively targeted integrin α3β1”.
